Among the test systems are MDA-MB-435; NCI-H23 lung; T-47D breast; TK-10 renal; DLD-1 colon; OVCAR-5 ovarian; M19-MEL melanoma; 786-0 renal; NCI-H226 lung; SR leukemia.
Holding throughout (test): growth of human tumour cells (NCI), 48 h

“And” between values parts separate entries of the source, which are not always exact repeats. Equal values may be shown once.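 In this assay, cells in 96-well plates receive the compound at five concentrations for 48 hours. Endpoints are linearly interpolated between the surrounding concentrations. Abbreviation: GI50, concentration required for 50% inhibition of growth. TGI is the concentration that stops growth completely.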

Take `CCc1ccc(NCc2cc(OC)c(OC)c(OC)c2)cc1`: the GI50 was 0.0232 µM and 0.0172 µM in the assay on MDA-MB-435; 24.6 µM and 10.7 µM in the assay with TK-10 renal; 4.09 µM in the assay on OVCAR-5 ovarian; 0.369 µM and 0.77 µM with 786-0 renal. Besides, the TGI in the assay with MDA-MB-435 was 45.8 µM and 31.3 µM; in the assay with NCI-H23 lung, 24.8 µM and 15.1 µM; in the assay with T-47D breast, 74.5 µM; in the assay with TK-10 renal, > 100 µM; with DLD-1 colon it was > 100 µM; in the assay with OVCAR-5 ovarian it was > 76.1 µM. Also, the TGI is 35.3 µM and > 87.8 µM in the assay with M19-MEL melanoma; 17.3 µM and > 38.5 µM in the assay with 786-0 renal; > 85 µM with NCI-H226 lung; 44.6 µM and > 100 µM with SR leukemia.

On to `C=C(C)[C@@H]1CC=C(CO)CC1`, for which the TGI with MDA-MB-435 is > 10 µM; with NCI-H23 lung, > 10 µM and 1120 µM; with T-47D breast, > 10 µM; in the assay with TK-10 renal, > 10 µM and 998 µM; in the assay with DLD-1 colon, 922 µM; in the assay with OVCAR-5 ovarian it was > 10 µM and 798 µM. The TGI is 793 µM with M19-MEL melanoma; > 10 µM and 943 µM in the assay with 786-0 renal; > 10 µM and 1090 µM in the assay on NCI-H226 lung; > 10 µM and 1080 µM in the assay with SR leukemia. Moreover, the GI50 with NCI-H23 lung, in the assay on TK-10 renal, in the assay on OVCAR-5 ovarian, with 786-0 renal, in the assay with NCI-H226 lung and with SR leukemia was > 10 µM throughout.

(Values after PubChem BioAssay (NCI).)
